Test results as given in patent US9839618B2, “Compositions and methods relating to proliferative diseases” (The Penn State Research Foundation, priority 2010, dated 2017).
Where two headings read alike, the source gives them in different places.

Key:
[1] = test system: FF2441 normal human fibroblasts; assay: MTS assay viability IC50, normal fibroblasts; format: cell-based; conditions: read-out: IC50 Normal fibroblast FF2441
Method: (§1) The efficacy of leelamine to kill other cancer types is measured and the IC50 for cell lines derived from carcinomas of breast, lung, prostate, connective tissue, pancreas and colon determined. The MTS assay as described in Sharma, A. et al., Clin Cancer Res, 2009, 15:1674-85; and Madhunapantula, S. V. et al., Mol Cancer Ther, 2008, 7:1297-308 is used to establish the IC50 at 24, 48 and 72 hours of leelamine treatment for normal human epidermal melanocytes (FOM103), normal skin fibroblast cells (FF2441), normal skin keratinocytes (HFK) and compared to melanocytic lesion cells from the radial-, vertical- and metastatic melanoma stages. 5×10^3 cells per well in 100 μL of media are plated and grown in a 96-well plate for 48 to 72 hours and treated with either DMSO vehicle control or 0.62 to 40 μmol/L of leelamine for 24, 48 or 72 hours. IC50 values for each compound in μmol/L for respective cell lines are measured from three independent experiments using GraphPad Prism version 4.01 (GraphPad Software, La Jolla, Calif.). Leelamine is found to be not toxic to normal cells and effective to kill melanoma cells as well as non-melanoma cancer cells as shown in Table 1 in FIG. 20. Leelamine is 3- to 4-fold more specific at killing metastatic melanoma than normal cells, supporting cancer therapeutic utility at concentrations<2 μmol/L.
5×10^3 cells per well in 100 μL of media are plated and grown in a 96-well plate for 48 to 72 hours and treated with either DMSO vehicle control or 0.62 to 40 μmol/L of leelamine for 24, 48 or 72 hours. IC50 values for each compound in μmol/L for respective cell lines are measured from three independent experiments using GraphPad Prism version 4.01 (GraphPad Software, La Jolla, Calif.). […]
(§2) Dehydroabietylamine, its N-substituted derivatives and the corresponding dihydroabietylamine and its N-substituted derivatives are tested for their capability to inhibit cell growth of cancer cell lines, including melanoma (UACC 903, 1205Lu), breast (MCF-7), fibrosarcoma (HT-1080), colon (Caco-2), and prostate (PC-3) cancer cell lines. Viability and IC50 of normal human fibroblasts and cell lines from melanoma and other malignancies following treatment with all the agents are measured using the MTS assay (Promega, Madison, Wis.). Human fibroblast FF2441 cells, metastatic melanoma cell lines 1205 Lu and UACC 903 as well as cancer cell lines representing sarcoma (HT-1080), prostate (PC-3, LNCaP), breast (MCF-7) and lung (A-549) are maintained in DMEM (Invitrogen, Carlsbad, Calif.) supplemented with 10% FBS (Hyclone, Logan, Utah) in a 5% CO2 atmosphere, humidified 37° C. incubator. 5×10^3 cells per well in 100 μL of media are plated and grown in a 96-well plate for 48 to 72 h and treated with either DMSO vehicle control or 0.62 to 40 μmol/L for 24, 48 or 72 h. IC50 values for each compound in […] for respective cell lines are measured from three independent experiments using GraphPad Prism version 4.01 (GraphPad Software, La Jolla, Calif.). FIG. 52 is a graph showing IC50 values for leelamine and compounds 4a, 4b and 5a in treated fibroblasts (FF2441) compared to melanoma cells. Selectivity ratio here is defined as ratio of activity against fibroblasts compared to activity against melanoma cells. Leelamine is relatively selective with a ratio of >6 and >4 for UACC903 and 1205Lu melanoma cells. The selectivity ratio of compound 4a is ˜4 and ˜3 for UACC903 and 1205Lu and for compound 4b is ˜4 for both cell lines. The selectivity ratio of compound 5a is ˜4 for UACC903 and >2 for 1205Lu cells.

[2] = test system: UACC 903 metastatic melanoma cells; assay: MTS assay viability IC50, UACC 903; format: cell-based, human
Method: as §1
(§3) 5×10^3 cells per well in 100 μL of media are plated and grown in a 96-well plate for 48 to 72 hours and treated with either DMSO vehicle control or 0.62 to 40 μmol/L of leelamine for 24, 48 or 72 hours. IC50 values for each compound in μmol/L for respective cell lines are measured from three independent experiments using GraphPad Prism version 4.01 (GraphPad Software, La Jolla, Calif.).
(§4) The IC50 and effect of liposomal preparations of leelamine on viability of normal human melanocytes, fibroblasts and melanoma cells UACC 903 and 1205 Lu are measured using the MTS assay (Promega, Madison, Wis.). Empty liposomes or liposomes containing abietic acid are used as controls. 5×10^3 cells per well in 100 μL of media are plated and grown in a 96-well plate for 48 or 72 hours for melanoma and normal cell lines, respectively. The cells are then treated with 0.62 to 40 μmol/L of liposome alone, a liposomal preparation of abietic acid, or with Nanolipolee-007 for 24 hours. IC50 values for each liposome in μmol/L for respective cell lines are measured from three independent experiments using GraphPad Prism version 4.01 (GraphPad Software, La Jolla, Calif.). Nanolipolee-007 retains the growth inhibitory activity of leelamine in killing melanoma cells in culture and specifically kills melanoma cells compared to normal cells, FIG. 24.
as §2, with “FIG. 52 is a graph showing IC50 values for leelamine and compounds 4a, 4b and 5a in treated fibroblasts (FF2441) compared to melanoma cells. Selectivity ratio here is defined as ratio of activity against fibroblasts compared to activity against melanoma cells. Leelamine is relatively selective with a ratio of >6 and >4 for UACC903 and 1205Lu melanoma cells. The selectivity ratio of compound 4a is ˜4 and ˜3 for UACC903 and 1205Lu and for compound 4b is ˜4 for both cell lines. The selectivity ratio of compound 5a is ˜4 for UACC903 and >2 for 1205Lu cells.” left out

[3] = test system: 1205 Lu metastatic melanoma cells; assay: MTS assay viability IC50, 1205 Lu; format: cell-based, human
Method: as §1, §3, §4
as §2, with “FIG. 52 is a graph showing IC50 values for leelamine and compounds 4a, 4b and 5a in treated fibroblasts (FF2441) compared to melanoma cells. Selectivity ratio here is defined as ratio of activity against fibroblasts compared to activity against melanoma cells. Leelamine is relatively selective with a ratio of >6 and >4 for UACC903 and 1205Lu melanoma cells. The selectivity ratio of compound 4a is ˜4 and ˜3 for UACC903 and 1205Lu and for compound 4b is ˜4 for both cell lines. The selectivity ratio of compound 5a is ˜4 for UACC903 and >2 for 1205Lu cells.” left out

[4] = test system: melanoma cell lines (UACC 903, 1205Lu); assay: MTS assay, melanoma cell lines (cell line not given); format: cell-based, human; conditions: Homo sapiens; Example 8
Method: The mechanistic basis of leelamine's activity to inhibit melanoma cell growth is determined by examining the effect of leelamine on 1) cell viability using the MTS assay; 2) proliferation using a BrdU incorporation assay; 3) apoptosis using an assay for caspase-3/7 activity; and 4) cell cycle analysis. The MTS assay as described in Sharma, A. et al., Clin Cancer Res, 2009, 15:1674-85; and Madhunapantula, S. V. et al., Mol Cancer Ther, 2008, 7:1297-308 is used to assay cell viability. Rates of proliferation and apoptosis are measured by seeding 5×10^3 cells in 96-well plates, followed by treatment with 0.62 to 10 μmol/L of leelamine for 24 hours. Proliferating and apoptotic cells are quantified using a colorimetric cell proliferation ELISA BrdU kit (Roche diagnostics, Indianapolis, Ind.) or Apo-ONE Homogenous caspase-3/7 assay kit (Promega, Madison, Wis.), respectively, as described in Sharma, A. et al., Clin Cancer Res, 2009, 15:1674-85; and Madhunapantula, S. V. et al., Mol Cancer Ther, 2008, 7:1297-308.
as §2

[5] = Table 4, read-out: IC50 Metastatic Melanoma Cell line UACC903
[6] = Table 4, read-out: IC50 Metastatic Melanoma Cell line 1205Lu
[7] = Homo sapiens, UACC-903, Example 8, read-out: IC50 UACC 903
[8] = Homo sapiens, UACC-903, Table 4, read-out: IC50 Metastatic Melanoma Cell line UACC903
[9] = Homo sapiens, UACC-903, Table 6, read-out: IC50 Metastatic melanoma UACC 903
[10] = Homo sapiens, UACC-903, Table 7, read-out: IC50 (UACC903)
[11] = Homo sapiens, 1205Lu, Table 4, read-out: IC50 Metastatic Melanoma Cell line 1205Lu
[12] = Homo sapiens, 1205Lu, Table 6, read-out: IC50 Metastatic melanoma 1205 Lu
[13] = Homo sapiens, 1205Lu, Example 8, read-out: IC50 1205Lu

IC50 [2, 9] [µM]	IC50 [2, 10] [µM]	IC50 [3, 12] [µM]	IC50 [4] [µM]	Structure (SMILES)	IC50 ([1]; Table 6) [µM]	also measured
				CCOC[C@]1(C)CCC[C@]2(C)C3CCC(C(C)C)C=C3C=CC12 (some centres unmarked) [Compound 2a]		IC50 ([1]; Table 4): > 100 µM; IC50 [2, 5]: > 100 µM; IC50 [3, 6]: > 100 µM
				CC(C)C1C=C2C=CC3[C@](C)(CO)CCC[C@]3(C)C2CC1 (stereo partly drawn) [Compound 2b, [(1R,4aR)-1,4a-dimethyl-7-(propan-2-yl)-1,2,3,4,4a,4b,5,6,7,100a-decahydrophenanthren-1-yl]methanol]	> 100	IC50 ([1]; Table 4): > 100 µM; IC50 ([2]; Example 8, read-out: IC50 UACC 903): 53 µM; IC50 [2, 5]: 52.6 ± 1.34 µM; IC50 ([2]; Table 6, read-out: IC50 Metastatic melanoma UACC 903): 52.6 ± 1.34 µM; IC50 ([2]; Table 7, read-out: IC50 (UACC903)): 52.6 µM; IC50 ([3]; Example 8, read-out: IC50 1205Lu): 60 µM; IC50 [3, 6]: 60.4 ± 1.61 µM; IC50 ([3]; Table 6, read-out: IC50 Metastatic melanoma 1205 Lu): 60.4 ± 1.61 µM
70.1 ± 1.8	70.1	81.1 ± 2.09		CC(C)C1=CC2=CCC3[C@](C)(CCC[C@@]3(C)C(N)=O)C2CC1 (stereo partly drawn) [Compound 3a, (1R,4aR)-1,4a-dimethyl-7-(propan-2-yl)-1,2,3,4,4a,4b,5,6,10,10a-decahydrophenanthrene-1-carboxamide]	> 100	IC50 [2, 7]: 70 µM; IC50 [2, 8]: 70.1 ± 1.8 µM; IC50 [3, 11]: 81.1 ± 2.09 µM
> 100	> 100	> 100	> 100	CNC(=O)[C@]1(C)CCC[C@]2(C)C3CCC(C(C)C)=CC3=CCC21 (stereo partly drawn) [Compound 3b, (1R,4aR)-N,1,4a-trimethyl-7-(propan-2-yl)-1,2,3,4,4a,4b,5,6,10,10a-decahydrophenanthrene-1-carboxamide]	> 100	
			> 100	CCN(CC)C(=O)[C@]1(C)CCC[C@]2(C)C3CCC(C(C)C)=CC3=CCC21 (stereo partly drawn) [Compound 3c, (1R,4aR)-N,N-diethyl-1,4a-dimethyl-7-(propan-2-yl)-1,2,3,4,4a,4b,5,6,10,10a-decahydrophenanthrene-1-carboxamide]		
24.4 ± 1.33	24.4	24.3 ± 2.5		CCN(CC)C[C@]1(C)CCC[C@]2(C)C3CCC(C(C)C)=CC3=CCC12 (stereo partly drawn) [Compound 4c, {[(1R,4aR)-1,4a-dimethyl-7-(propan-2-yl)-1,2,3,4,4a,4b,5,6,10,10a-decahydrophenanthren-1-yl]methyl}diethylamine]	> 100	IC50 [2, 7]: 24.4 µM; IC50 [2, 8]: 24.4 ± 1.33 µM; IC50 [3, 13]: 24.3 µM; IC50 [3, 11]: 24.3 ± 2.5 µM
89.4 ± 3.31	89.4			CC(=O)NC[C@]1(C)CCC[C@]2(C)c3ccc(C(C)C)cc3CCC12 (stereo partly drawn) [Compound 5b, N-{[(1R,4aS)-1,4a-dimethyl-7-(propan-2-yl)-1,2,3,4,4a,9,10,10a-octahydrophenanthren-1-yl]methyl}acetamide]	> 100	IC50 [2, 7]: 89 µM; IC50 [3, 13]: > 50 µM; IC50 [3, 11]: > 50 µM
> 100	> 100		> 100	CC(C)c1ccc2c(c1)CCC1[C@](C)(CNC(=O)c3ccccc3)CCC[C@]21C (stereo partly drawn) [Compound 5c, N-(((1R,4aS)-7-isopropyl-1,4a-dimethyl-1,2,3,4,4a,9,10,10a-octahydrophenanthren-1-yl)methyl)benzamide]		
6.05	6.05		6	CC(C)c1ccc2c(c1)CCC1[C@](C)(CNCc3ccccc3)CCC[C@]21C (stereo partly drawn) [Compound 5d, N-benzyl-1-((1R,4aS)-7-isopropyl-1,4a-dimethyl-1,2,3,4,4a,9,10,10a-octahydrophenanthren-1-yl)methanamine]		IC50 [2, 8]: 6.05 ± 1.32 µM
			> 100	CC(C)c1ccc2c(c1)CCC1[C@](C)(CNC(c3ccccc3)(c3ccccc3)c3ccccc3)CCC[C@]21C (stereo partly drawn) [Compound 5e, {[(1R,4aS)-1,4a-dimethyl-7-(propan-2-yl)-1,2,3,4,4a,9,10,10a-octahydrophenanthren-1-yl]methyl}(triphenylmethyl)amine]		
1.01 ± 0.08	1.01	1.88 ± 0.21		CC(C)c1ccc2c(c1)CCC1[C@](C)(CNC(=O)C(Br)(Br)Br)CCC[C@]21C (stereo partly drawn) [GPR-5L, N-{[(1R,4aS)-1,4a-dimethyl-7-(propan-2-yl)-1,2,3,4,4a,9,10,10a-octahydrophenanthren-1-yl]methyl}-2,2,2-tribromoacetamide]		
